Test results taken from the NIST ThermoML archive (doi:10.1021/je7003929).
Numbers after ± are expanded uncertainties.

Conditions: Liquid, Vibrating tube method

CCCCCC [hexane]
Conditions	mass density [kg/m3]
313.12 K, 1019 kPa	642.2 ± 0.4
313.12 K, 2044 kPa	643.5 ± 0.5
313.12 K, 3023 kPa	644.6 ± 0.5
313.12 K, 4018 kPa	645.8 ± 0.5
313.12 K, 5016 kPa	647 ± 0.5
313.12 K, 6012 kPa	648.1 ± 0.5
313.12 K, 7016 kPa	649.2 ± 0.5
313.12 K, 8016 kPa	650.3 ± 0.5
313.12 K, 9020 kPa	651.4 ± 0.5
313.12 K, 10018 kPa	652.5 ± 0.5
313.12 K, 11020 kPa	653.5 ± 0.5
313.12 K, 12004 kPa	654.6 ± 0.5
313.12 K, 13007 kPa	655.6 ± 0.5
313.12 K, 14015 kPa	656.6 ± 0.5
313.12 K, 15006 kPa	657.6 ± 0.5
313.12 K, 16023 kPa	658.6 ± 0.5
313.12 K, 17015 kPa	659.6 ± 0.6
313.12 K, 18011 kPa	660.5 ± 0.6
313.12 K, 19009 kPa	661.4 ± 0.6
313.12 K, 20016 kPa	662.4 ± 0.6
313.12 K, 20995 kPa	663.3 ± 0.6
313.12 K, 22018 kPa	664.2 ± 0.6
313.12 K, 23018 kPa	665.1 ± 0.6
313.12 K, 24013 kPa	666 ± 0.6
313.12 K, 25002 kPa	666.8 ± 0.6
323.05 K, 1030 kPa	633 ± 0.5
323.05 K, 2010 kPa	634.3 ± 0.5
323.05 K, 3021 kPa	635.6 ± 0.5
323.05 K, 4018 kPa	636.9 ± 0.5
323.05 K, 5014 kPa	638.1 ± 0.5
323.05 K, 6007 kPa	639.4 ± 0.5
323.05 K, 7010 kPa	640.6 ± 0.5
323.05 K, 8012 kPa	641.8 ± 0.5
323.05 K, 9020 kPa	643 ± 0.5
323.05 K, 10008 kPa	644.1 ± 0.5
323.05 K, 11021 kPa	645.2 ± 0.5
323.05 K, 12011 kPa	646.4 ± 0.5
323.05 K, 13007 kPa	647.4 ± 0.5
323.05 K, 14007 kPa	648.5 ± 0.5
323.05 K, 15035 kPa	649.6 ± 0.5
323.05 K, 16011 kPa	650.6 ± 0.5
323.05 K, 17021 kPa	651.6 ± 0.6
323.05 K, 18020 kPa	652.7 ± 0.6
323.05 K, 19013 kPa	653.7 ± 0.6
323.05 K, 20001 kPa	654.6 ± 0.6
323.05 K, 21028 kPa	655.6 ± 0.6
323.05 K, 22004 kPa	656.6 ± 0.6
323.05 K, 23010 kPa	657.5 ± 0.6
323.05 K, 24021 kPa	658.5 ± 0.6
323.05 K, 25018 kPa	659.4 ± 0.6
332.85 K, 1020 kPa	623.5 ± 0.5
332.85 K, 2021 kPa	625 ± 0.5
332.85 K, 3022 kPa	626.5 ± 0.5
332.85 K, 4020 kPa	627.8 ± 0.5
332.85 K, 5011 kPa	629.2 ± 0.5
332.85 K, 6016 kPa	630.6 ± 0.5
332.85 K, 7012 kPa	631.9 ± 0.5
332.85 K, 8025 kPa	633.3 ± 0.5
332.85 K, 9012 kPa	634.5 ± 0.5
332.85 K, 10010 kPa	635.7 ± 0.5
332.85 K, 11012 kPa	636.9 ± 0.5
332.85 K, 12019 kPa	638.1 ± 0.5
332.85 K, 13007 kPa	639.2 ± 0.5
332.85 K, 14021 kPa	640.4 ± 0.5
332.85 K, 15014 kPa	641.6 ± 0.5
332.85 K, 16025 kPa	642.8 ± 0.6
332.85 K, 17011 kPa	643.8 ± 0.6
332.85 K, 18035 kPa	644.9 ± 0.6
332.85 K, 19014 kPa	646 ± 0.6
332.85 K, 20011 kPa	647.1 ± 0.6
332.85 K, 21015 kPa	648.1 ± 0.6
332.85 K, 22000 kPa	649.1 ± 0.6
332.85 K, 23012 kPa	650.1 ± 0.6
332.85 K, 24022 kPa	651.2 ± 0.6
332.85 K, 25030 kPa	652.2 ± 0.6
342.73 K, 1010 kPa	613.9 ± 0.5
342.73 K, 2010 kPa	615.5 ± 0.5
342.73 K, 3011 kPa	617.1 ± 0.5
342.73 K, 4010 kPa	618.6 ± 0.5
342.73 K, 5005 kPa	620 ± 0.5
342.73 K, 6031 kPa	621.6 ± 0.5
342.73 K, 7020 kPa	623 ± 0.5
342.73 K, 8009 kPa	624.4 ± 0.5
342.73 K, 9015 kPa	625.7 ± 0.5
342.73 K, 10012 kPa	627 ± 0.5
342.73 K, 11006 kPa	628.4 ± 0.5
342.73 K, 12014 kPa	629.7 ± 0.5
342.73 K, 13011 kPa	630.9 ± 0.5
342.73 K, 14014 kPa	632.2 ± 0.5
342.73 K, 15008 kPa	633.4 ± 0.6
342.73 K, 16006 kPa	634.6 ± 0.6
342.73 K, 17021 kPa	635.7 ± 0.6
342.73 K, 18016 kPa	636.9 ± 0.6
342.73 K, 19025 kPa	638 ± 0.6
342.73 K, 20037 kPa	639.2 ± 0.6
342.73 K, 21025 kPa	640.3 ± 0.6
342.73 K, 22016 kPa	641.3 ± 0.6
342.73 K, 23010 kPa	642.5 ± 0.6
342.73 K, 24023 kPa	643.5 ± 0.6
342.73 K, 25006 kPa	644.5 ± 0.6
352.56 K, 1017 kPa	604 ± 0.5
352.56 K, 2028 kPa	605.8 ± 0.5
352.56 K, 3030 kPa	607.6 ± 0.5
352.56 K, 4024 kPa	609.2 ± 0.5
352.56 K, 5022 kPa	610.9 ± 0.5
352.56 K, 6024 kPa	612.5 ± 0.5
352.56 K, 7027 kPa	614 ± 0.5
352.56 K, 8021 kPa	615.5 ± 0.5
352.56 K, 9022 kPa	617 ± 0.5
352.56 K, 10020 kPa	618.4 ± 0.5
352.56 K, 11023 kPa	619.9 ± 0.5
352.56 K, 12003 kPa	621.2 ± 0.5
352.56 K, 13021 kPa	622.6 ± 0.5
352.56 K, 14012 kPa	623.9 ± 0.5
352.56 K, 15007 kPa	625.2 ± 0.6
352.56 K, 16016 kPa	626.5 ± 0.6
352.56 K, 17012 kPa	627.7 ± 0.6
352.56 K, 18015 kPa	629 ± 0.6
352.56 K, 19003 kPa	630.2 ± 0.6
352.56 K, 20040 kPa	631.4 ± 0.6
352.56 K, 21005 kPa	632.5 ± 0.6
352.56 K, 22035 kPa	633.8 ± 0.6
352.56 K, 23002 kPa	634.8 ± 0.6
352.56 K, 24039 kPa	636 ± 0.6
352.56 K, 25000 kPa	637.1 ± 0.6
362.4 K, 1029 kPa	593.8 ± 0.5
362.4 K, 2020 kPa	595.8 ± 0.5
362.4 K, 3028 kPa	597.6 ± 0.5
362.4 K, 4029 kPa	599.5 ± 0.5
362.4 K, 5040 kPa	601.3 ± 0.5
362.4 K, 6026 kPa	602.9 ± 0.5
362.4 K, 7026 kPa	604.7 ± 0.5
362.4 K, 8004 kPa	606.3 ± 0.5
362.4 K, 9007 kPa	607.9 ± 0.5
362.4 K, 10009 kPa	609.4 ± 0.5
362.4 K, 11009 kPa	610.9 ± 0.5
362.4 K, 12010 kPa	612.5 ± 0.5
362.4 K, 13000 kPa	614 ± 0.5
362.4 K, 14028 kPa	615.5 ± 0.6
362.4 K, 15017 kPa	616.8 ± 0.6
362.4 K, 16014 kPa	618.1 ± 0.6
362.4 K, 17004 kPa	619.5 ± 0.6
362.4 K, 18002 kPa	620.9 ± 0.6
362.4 K, 18988 kPa	622.1 ± 0.6
362.4 K, 20027 kPa	623.4 ± 0.6
362.4 K, 21002 kPa	624.7 ± 0.6
362.4 K, 22018 kPa	625.9 ± 0.6
362.4 K, 23013 kPa	627.1 ± 0.6
362.4 K, 24001 kPa	628.4 ± 0.6
362.4 K, 25000 kPa	629.5 ± 0.6
